ChEMBL document CHEMBL1201862, “PubChem BioAssay data set” (2004)
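Test compounds were applied to cells in 96-well plates for 48 hours at 5 doses. GI50 marks 50% less growth.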 The source made the active and inactive calls. No stated cut-off is given here; in the data, active = GI50 up to about 1.1 µM and inactive = higher.

Experiments:
Assay in all cases: NCI-60 cell line screen, 48 h
[1] = system: OVCAR-3
[2] = system: NCI-H23
[3] = system: MDA-MB-435
[4] = system: NCI-H522
[5] = system: HCC 2998
[6] = system: SNB-75
[7] = system: SR
[8] = system: NCI-H460
[9] = system: RPMI-8226
[10] = system: A549
[11] = system: U-251
[12] = system: SK-MEL-5
[13] = system: SF-539
[14] = system: TK-10
[15] = system: T47D
[16] = system: OVCAR-4
[17] = system: CCRF-CEM
[18] = system: SK-MEL-2
[19] = system: OVCAR-8
[20] = system: HT-29
[21] = system: SK-MEL-28
[22] = system: UACC-62
[23] = system: BT-549
[24] = system: MDA-MB-231
[25] = system: SN12C
[26] = system: DU-145
[27] = system: Malme-3M
[28] = system: COLO 205
[29] = system: HCT-15
[30] = system: K562
[31] = system: Hs-578T
[32] = system: UO-31
[33] = system: RXF 393
[34] = system: SK-OV-3
[35] = system: LOX IMVI
[36] = system: MOLT-4
[37] = system: IGROV-1
[38] = system: SF-295
[39] = system: A498
[40] = system: CAKI-1
[41] = system: SNB-19
[42] = system: NCI-H226
[43] = system: HOP-92
[44] = system: HCT-116
[45] = system: EKVX
[46] = system: M14
[47] = system: MCF7
[48] = system: KM12
[49] = system: OVCAR-5
[50] = system: 786-0
[51] = system: HL-60
[52] = system: ACHN
[53] = system: SW-620
[54] = system: SF-268
[55] = system: UACC-257
[56] = system: PC-3
[57] = system: NCI/ADR-RES
[58] = system: MDA-N
[59] = system: HOP-62

Question: Which results are given for CC[P+]1(c2ccccc2)[C@@H](C)CC[C@@H]1C?
Answer: GI50 [1]: 84.1 µM (inactive); GI50 [2]: > 100 µM (inactive); GI50 [3]: > 100 µM (inactive); GI50 [4]: > 100 µM (inactive); GI50 [5]: > 100 µM (inactive); GI50 [6]: > 100 µM (inactive); GI50 [7]: > 100 µM (inactive); GI50 [8]: > 100 µM (inactive); GI50 [9]: > 100 µM (inactive); GI50 [10]: > 100 µM (inactive); GI50 [11]: 40.5 µM (inactive); GI50 [12]: 65.2 µM (inactive); GI50 [13]: > 100 µM (inactive); GI50 [14]: > 100 µM (inactive); GI50 [15]: > 100 µM (inactive); GI50 [16]: > 100 µM (inactive); GI50 [17]: > 100 µM (inactive); GI50 [18]: > 100 µM (inactive); GI50 [19]: > 100 µM (inactive); GI50 [20]: > 100 µM (inactive); GI50 [21]: > 100 µM (inactive); GI50 [22]: > 100 µM (inactive); GI50 [23]: > 100 µM (inactive); GI50 [24]: > 100 µM (inactive); GI50 [25]: > 100 µM (inactive); GI50 [26]: > 100 µM (inactive); GI50 [27]: 97.1 µM (inactive); GI50 [28]: 85.1 µM (inactive); GI50 [29]: > 100 µM; GI50 [30]: 96.2 µM (inactive); GI50 [31]: > 100 µM (inactive); GI50 [32]: > 100 µM (inactive); GI50 [33]: > 100 µM (inactive); GI50 [34]: > 100 µM (inactive); GI50 [35]: > 100 µM (inactive); GI50 [36]: > 100 µM (inactive); GI50 [37]: > 100 µM (inactive); GI50 [38]: > 100 µM (inactive); GI50 [39]: > 100 µM (inactive); GI50 [40]: > 100 µM (inactive); GI50 [41]: > 100 µM (inactive); GI50 [42]: > 100 µM (inactive); GI50 [43]: 39.1 µM (inactive); GI50 [44]: > 100 µM (inactive); GI50 [45]: > 100 µM (inactive); GI50 [46]: > 100 µM (inactive); GI50 [47]: > 100 µM (inactive); GI50 [48]: > 100 µM (inactive); GI50 [49]: > 100 µM (inactive); GI50 [50]: > 100 µM (inactive); GI50 [51]: > 100 µM (inactive); GI50 [52]: > 100 µM (inactive); GI50 [53]: > 100 µM (inactive); GI50 [54]: > 100 µM (inactive); GI50 [55]: > 100 µM (inactive); GI50 [56]: 61.9 µM (inactive); GI50 [57]: > 100 µM (inactive); GI50 [58]: > 100 µM (inactive); GI50 [59]: > 100 µM (inactive)
